Activity calls are given as the source filed them.
What was measured:
[1] = inhibitors of intracellular T. cruzi replication, confirmation, NIH3T3 host cells, beta-gal luminescence (AID 2044); assay type: functional, cell-based;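 further: intracellular parasites grown in NIH/3T3 mouse fibroblasts as host cells; luminescent beta-galactosidase reporter signal from transgenic T. cruzi replicating inside host cells; inhibitors lower the luminescence signal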
[2] = cytotoxicity toward NIH3T3 fibroblasts, dose response, counter-screen, cell-based, ATP luminescence, mouse fibroblasts (AID 2010); assay type: functional;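 further: cells exposed to compound for about 90 hours before reading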
[3] = Artemis endonuclease inhibitor potency, dose response, biochemical, fluorescence intensity (AID 720701); assay type: functional;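 further: Artemis endonuclease enzyme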
[4] = inhibitors of firefly luciferase expression or activity, dose response, H4 neuroglioma cells, luminescence (AID 1990); assay type: functional, cell-based
[5] = luciferase reporter signal reduction – luminescence, H4-C neuroglioblastoma cells, dose response (AID 2458); assay type: functional, cell-based;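 further: H4 neuroglioblastoma cells stably carrying a luciferase reporter gene fusion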
BJ [6] = assay: cytotoxicity toward BJ-TERT fibroblasts, dose response, cell-based, RAS-independent, luminescence (AID 1933); assay type: functional; conditions: Homo sapiens
cells [7] = assay type: functional, cell-based
[8] = Luminescence Cell-Based Dose Response HTS to Identify Inhibitors of 5'UTR Stem-Loop Driven Prion Protein mRNA Translation in H4 Neuroglioblastoma Cells. [Related pubchem assays: 1827 (Project Summary), 1813 (Primary HTS)]; assay type: functional
[9] = inhibitors of SNCA 5'UTR-driven reporter translation, confirmation, H4 neuroglioma cells, luminescence (AID 1988); assay type: functional, cell-based
BJ [10] = assay: cells; assay type: functional, cell-based; conditions: Homo sapiens
[11] = cytotoxicity toward DRD oncogenic fibroblasts, dose response, cell-based, non-viral oncogenic, luminescence (AID 1934); assay type: functional; conditions: Homo sapiens
[12] = inhibitors of SNCA 5'UTR-driven translation, confirmation, luminescence, H4 neuroglioblastoma cells, dose confirmation (AID 2454); assay type: functional, cell-based;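 further: H4 neuroglioblastoma cells carrying an alpha-synuclein 5'UTR luciferase reporter; potency for inhibition of the luciferase signal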
BJ [13] = assay: cytotoxicity toward Ras-transformed BJeLR fibroblasts, dose response, cell-based, alamar blue fluorescence, cherrypicked samples (AID 2631); assay type: functional; conditions: Homo sapiens;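 further: confirmatory dose-response assay in RAS-dependent BJ fibroblasts engineered with TERT, LT and ST, with cytotoxicity read by fluorescence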
Paired box protein Pax-8 = Paired box protein Pax-8 (Homo sapiens, UniProt Q06710); assay: inhibitors of PAX8-driven TPO luciferase reporter, dose response, RMG-I cells, cherry-pick (AID 687027); assay type: functional, cell-based;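 further: luciferase reporter driven by Pax8 target thyroperoxidase promoter measured by SteadyGlo luminescence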
Chain of Paired box protein Pax-8 (Q06710 whole entry): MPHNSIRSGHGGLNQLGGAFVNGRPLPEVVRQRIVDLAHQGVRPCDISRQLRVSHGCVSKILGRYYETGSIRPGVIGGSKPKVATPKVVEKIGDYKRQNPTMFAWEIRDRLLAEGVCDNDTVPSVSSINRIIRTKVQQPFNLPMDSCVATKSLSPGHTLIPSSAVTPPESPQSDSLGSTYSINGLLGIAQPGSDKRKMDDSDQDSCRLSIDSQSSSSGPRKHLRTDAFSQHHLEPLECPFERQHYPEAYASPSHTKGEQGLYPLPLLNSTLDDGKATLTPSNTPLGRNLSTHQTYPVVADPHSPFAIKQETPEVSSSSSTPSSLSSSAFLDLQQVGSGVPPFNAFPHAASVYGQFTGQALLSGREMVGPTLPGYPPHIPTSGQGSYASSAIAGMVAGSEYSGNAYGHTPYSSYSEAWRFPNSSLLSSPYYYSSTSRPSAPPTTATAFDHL

[14] = PAX2 cell-based inhibition, dose response, selectivity assay for PAX8 inhibitor project, plate reader, dry powder samples (AID 743048); assay type: functional;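 further: HEK293 cells carrying a WT1 promoter luciferase reporter driven by expressed Pax2; potency is for inhibition of Pax2 driven reporter signal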
[15] = cytotoxicity in COV362 ovarian cancer cells, dose response, cytotoxicity control for PAX8 inhibitor project, cell-based, plate reader, dry powder, SA12 (AID 743144); assay type: functional
[16] = IOSE-T80 ovarian epithelial cell cytotoxicity, dose response, cytotoxicity control for PAX8 inhibitor project, plate reader, dry powder samples (AID 743045); assay type: functional, cell-based
[17] = A2780 ovarian cancer cell cytotoxicity, dose response, cytotoxicity control, plate reader, dry powder samples (AID 743046); assay type: functional, cell-based
[18] = NIH:OVCAR-3 ovarian cancer cell cytotoxicity, dose response, PAX8 inhibitor project, plate reader, dry powder samples (AID 743044); assay type: functional, cell-based
[19] = PAX5 activity inhibitors, dose response, selectivity assay for PAX8 inhibitor project, cell-based, plate reader, dry powder samples (AID 743047); assay type: functional;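 further: HEK293 cells carrying a Pax5 driven CD19 promoter luciferase reporter; potency of inhibitors that lower reporter luminescence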
[20] = IGROV1 ovarian cancer cell cytotoxicity, dose response, PAX8 inhibitor project, plate reader, dry powder samples (AID 743043); assay type: functional, cell-based; conditions: IGROV-1
[21] = cytotoxicity in OVCAR4 cells, dose response, cytotoxicity control for PAX8 inhibitor project, cell-based, plate reader, dry powder, SA11 (AID 743150); assay type: functional; conditions: OVCAR-4
[22] = cytotoxicity in COV434 cells, dose response, cytotoxicity control for PAX8 inhibitor project, cell-based, plate reader, dry powder, SA7 (AID 743145); assay type: functional
[23] = cytotoxicity in OV-90 ovarian cancer cells, dose response, PAX8 inhibitor project, cell-based, plate reader, dry powder, SA8 (AID 743149); assay type: functional
[24] = cytotoxicity dependent on PAX8, dose response, cell-based, plate reader, dry powder (AID 743049); assay type: functional
Genome polyprotein = Genome polyprotein (Hepatitis C virus, UniProt Q2Q167); assay: HCV core protein dimerization inhibitors, dose response, biochemical, TR-FRET (AID 2159); set-up: species or system Hepacivirus hominis;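 further: blocks dimerization of HCV core protein measured by TR-FRET between tagged core106 pairs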
Chain of Genome polyprotein (Q2Q167 whole entry, the tested form may be a part): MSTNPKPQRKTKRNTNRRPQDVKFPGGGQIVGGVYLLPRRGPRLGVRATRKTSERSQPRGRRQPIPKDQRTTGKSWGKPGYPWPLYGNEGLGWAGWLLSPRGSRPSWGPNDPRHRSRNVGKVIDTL

[25] = target: T1, RNA-binding protein pos-1 (Caenorhabditis elegans, UniProt G5EF15); assay: inhibitors of POS-1/mex-3 RNA binding, dose response, biochemical, fluorescence polarization (AID 1964);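 further: purified POS-1 fused to maltose binding protein made in E. coli; potency of compounds blocking POS-1 binding to fluorescent RNA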
T1 sequence (G5EF15 whole entry): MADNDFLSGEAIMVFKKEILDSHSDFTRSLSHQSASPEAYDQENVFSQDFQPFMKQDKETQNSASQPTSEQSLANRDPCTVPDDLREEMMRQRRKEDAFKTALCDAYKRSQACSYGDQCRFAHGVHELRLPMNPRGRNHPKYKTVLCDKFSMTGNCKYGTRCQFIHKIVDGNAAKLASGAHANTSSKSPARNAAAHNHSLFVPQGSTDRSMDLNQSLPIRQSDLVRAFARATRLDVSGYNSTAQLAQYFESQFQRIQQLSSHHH

[26] = target: T2, Zinc finger protein mex-5 (Caenorhabditis elegans, UniProt Q9XUB2); assay: MEX-5/TCR-2 RNA interaction inhibitors, dose response, biochemical, C. elegans, fluorescence polarization (AID 1960)
T2 sequence (Q9XUB2 whole entry): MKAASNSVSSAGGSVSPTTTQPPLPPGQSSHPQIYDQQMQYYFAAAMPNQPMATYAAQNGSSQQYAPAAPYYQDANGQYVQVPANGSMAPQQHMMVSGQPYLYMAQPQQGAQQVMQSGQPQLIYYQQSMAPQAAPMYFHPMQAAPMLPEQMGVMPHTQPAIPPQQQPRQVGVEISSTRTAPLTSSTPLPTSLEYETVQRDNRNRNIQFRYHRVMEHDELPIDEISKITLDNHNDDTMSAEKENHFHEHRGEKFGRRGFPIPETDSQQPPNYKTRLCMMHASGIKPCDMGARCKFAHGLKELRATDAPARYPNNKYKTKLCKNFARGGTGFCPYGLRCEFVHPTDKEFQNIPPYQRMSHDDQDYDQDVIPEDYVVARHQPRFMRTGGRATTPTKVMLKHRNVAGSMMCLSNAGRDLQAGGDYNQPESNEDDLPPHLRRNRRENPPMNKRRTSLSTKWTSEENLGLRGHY

Vero = Vero cell cytotoxicity, cytotoxicity control for flavivirus capping enzyme inhibitors (AID 588742); assay type: functional; conditions: Chlorocebus sabaeus
[27] = target: Glutathione-S-transferase (Schistosoma japonicum, UniProt Q26513); assay: biotin-GST/anti-GST TR-FRET signal inhibitors, dose response, artefact control for Vif-APOBEC3G degradation inhibitor project, biochemical (AID 1117362); assay type: functional
Chain of Glutathione-S-transferase (Q26513 whole entry): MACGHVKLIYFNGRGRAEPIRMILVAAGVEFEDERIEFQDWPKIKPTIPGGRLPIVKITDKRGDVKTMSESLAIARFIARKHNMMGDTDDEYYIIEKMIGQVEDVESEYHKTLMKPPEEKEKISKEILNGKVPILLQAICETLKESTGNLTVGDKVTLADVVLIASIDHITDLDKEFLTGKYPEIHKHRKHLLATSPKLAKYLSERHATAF

[28] = Late stage results for the probe development effort to identify inhibitors of Plasmodium falciparum gametocytes: Luminescence-based cell-based high throughput dose response assay to identify inhibitors of viability of late stage Plasmodium falciparum gametocytes.; assay type: functional
[29] = target: E3 ubiquitin-protein ligase Mdm2 (Homo sapiens, UniProt Q00987); assay: enhancers of MDM2-luciferase reporter signal, concentration-effect titration, project on inhibitors of MDM2 ubiquitin ligase, cellular assay, luminescent readout, 384-well plate format (AID 1394); assay type: functional;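 further: MDM2 E3 inhibitors raise luminescence so EC50 is for signal enhancement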
Chain of E3 ubiquitin-protein ligase Mdm2 (Q00987 whole entry): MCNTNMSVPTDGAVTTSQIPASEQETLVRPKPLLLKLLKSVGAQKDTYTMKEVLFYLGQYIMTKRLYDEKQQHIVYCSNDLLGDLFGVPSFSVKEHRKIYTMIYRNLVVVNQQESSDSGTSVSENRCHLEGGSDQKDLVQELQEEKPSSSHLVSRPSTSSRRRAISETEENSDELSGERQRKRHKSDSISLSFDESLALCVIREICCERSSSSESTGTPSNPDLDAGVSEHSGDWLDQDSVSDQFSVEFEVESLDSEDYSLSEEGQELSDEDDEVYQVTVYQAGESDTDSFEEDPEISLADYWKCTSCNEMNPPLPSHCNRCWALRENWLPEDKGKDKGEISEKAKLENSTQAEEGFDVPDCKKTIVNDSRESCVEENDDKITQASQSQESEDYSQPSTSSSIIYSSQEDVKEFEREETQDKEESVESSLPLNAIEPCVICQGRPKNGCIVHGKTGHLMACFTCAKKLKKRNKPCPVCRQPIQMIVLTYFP

[30] = target: T3, Mannose-6-phosphate isomerase (Homo sapiens, UniProt P34949); assay: human PMI inhibitors, high substrate, primary screen, biochemical, fluorescence intensity, high mannose 6-phosphate (AID 1220)
T3 sequence (P34949 whole entry): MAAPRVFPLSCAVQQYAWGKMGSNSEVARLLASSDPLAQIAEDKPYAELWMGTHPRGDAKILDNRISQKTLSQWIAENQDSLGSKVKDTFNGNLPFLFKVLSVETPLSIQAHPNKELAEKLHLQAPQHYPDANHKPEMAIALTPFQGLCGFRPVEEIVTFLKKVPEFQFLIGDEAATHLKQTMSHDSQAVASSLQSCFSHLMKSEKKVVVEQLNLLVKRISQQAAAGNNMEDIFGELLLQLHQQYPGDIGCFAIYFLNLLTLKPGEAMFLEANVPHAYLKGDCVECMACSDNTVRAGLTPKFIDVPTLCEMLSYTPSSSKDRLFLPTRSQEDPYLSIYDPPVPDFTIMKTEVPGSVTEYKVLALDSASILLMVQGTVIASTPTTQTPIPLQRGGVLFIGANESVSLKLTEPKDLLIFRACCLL

cells [31] = assay type: functional, cell-based; remark: listed apart in the source
[32] = target: T4, Trace amine-associated receptor 1 (Homo sapiens, UniProt Q96RJ0); assay: Fluorescence-based cell-based high throughput dose response assay to identify agonists of the human trace amine associated receptor 1 (TAAR1).; assay type: functional
T4 sequence (Q96RJ0 whole entry): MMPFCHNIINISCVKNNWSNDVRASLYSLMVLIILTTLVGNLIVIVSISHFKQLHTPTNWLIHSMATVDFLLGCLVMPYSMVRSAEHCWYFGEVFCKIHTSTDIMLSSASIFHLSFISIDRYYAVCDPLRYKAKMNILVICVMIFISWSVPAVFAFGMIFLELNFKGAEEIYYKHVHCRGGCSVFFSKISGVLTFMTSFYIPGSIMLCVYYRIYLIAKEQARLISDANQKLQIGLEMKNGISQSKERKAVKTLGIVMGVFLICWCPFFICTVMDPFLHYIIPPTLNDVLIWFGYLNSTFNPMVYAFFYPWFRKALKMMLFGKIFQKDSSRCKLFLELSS

[33] = target: T4, Trace amine-associated receptor 1; assay: Counterscreen for agonists of the human trace amine associated receptor 1 (hTAAR1): Fluorescence-based cell-based high throughput dose response assay to identify hTAAR1 agonist that also desensitize TAAR1 receptor response.; assay type: functional
cells [34] = assay type: functional, cell-based; remark: listed apart in the source

## CCOC(=O)c1c(NC(=O)CSc2n[nH]c3c4ccccc4nc-3n2)sc2c1CCN(C)C2
[1]
  EC50: 0.161 µM (active)
[2]
  EC50: > 60 µM (not active)
[3]
  IC50: 10 µM (active)

## Cc1cccc(C)c1NS(=O)(=O)c1ccc(-c2cnc(C3CC3)o2)cc1
[4]
  EC50: < 0.1 µM (active)
[5]
  EC50: 0.113 µM (active)
BJ [6]
  EC50: 0.158 µM (active)
Cells [7]
  EC50: 0.229 µM (active)
[8]
  EC50: > 120 µM (not active)
[9]
  EC50: < 0.1 µM (active)
BJ [10]
  EC50: 0.751 µM (inconclusive)
[11]
  EC50: 60.4 µM (inconclusive)
[12]
  EC50: 0.208 µM (active)
BJ [13]
  EC50: < 0.104 µM (active)
Paired box protein Pax-8
  AC50: 1.74 µM (active)
[14]
  AC50: 22.4 µM (active)
[15]
  AC50: 0.401 µM (active)
[16]
  AC50: 0.651 µM (active)
[17]
  AC50: 2.06 µM (active)
[18]
  AC50: 12.1 µM (active)
[19]
  AC50: 4.58 µM (active)
[20]
  AC50: 5.04 µM (active)
[21]
  AC50: 0.366 µM (active)
[22]
  AC50: 0.329 µM (active)
[23]
  AC50: 0.973 µM (active)
[24]
  AC50: 5.36 µM (active)

## O=C1CSC(=S)N1/N=C/c1ccc(Cl)c([N+](=O)[O-])c1
Genome polyprotein
  IC50: > 49.8 µM (not active)
[25]
  EC50: 18.6 µM (active)
[26]
  EC50: 15.7 µM (active)

## Cc1nn(-c2ccccn2)c2c1C(=O)C(Br)CC2 (configuration not stated)
Vero
  CC50: > 40 µM (active)
[27]
  IC50: 65.6 µM (active)

## Cc1cccc(-c2nn(-c3ccccc3)cc2C(=O)Nc2nccs2)c1
[28]
  IC50: > 74.4 µM (inactive)

## O=[N+]([O-])c1ccc2c(c1NCCc1ccccc1)=NC1(CCCCC1)[N+]=2[O-]
[29]
  EC50: 393 µM (not active)
[30]
  IC50: > 50 µM (not active)
Cells [31]
  IC50: > 29.9 µM (inactive)
[32]
  EC50: 3.09 µM (active)
[33]
  IC50: 8.86 µM (active)
Cells [34]
  EC50: > 29.9 µM (inactive)
